Measured values as given in paper PMC11195807, “Development of a multi-targeted chemotherapeutic approach based on G-quadruplex stabilisation and carbonic anhydrase inhibition” (Journal of Enzyme Inhibition and Medicinal Chemistry, 2024).
Several values for one entry are separate records, joined by “and”; a condition that tells them apart may be missing. Identical values can stand only once. Like-named read-outs stand apart in the source and are kept apart here.

What was measured:
[1] = system: HeLa cells; test: MTT assay, HeLa cells in normoxia; type: cell-based; settings: for IC50: Homo sapiens
From the text: Combining the results on carbonic anhydrase inhibition and GQ thermal stabilisation, we selected the sulphonamides S-2,0, S-4,0, S-5,0 and the coumarins C-3,2, C-4,2, C-5,2 as the most promising MTDLs to be further investigated, since able to both efficiently suppress the activity of the hCAs IX/XII and stabilise GQ structures, in vitro. Moreover, given that crystals suitable for X-ray diffraction analyses had been successfully obtained for the human telomeric DNA GQ in complex with S-3,2, we also included such sulphonamide derivative in the subsequent studies. Thus, we assessed the cytotoxicity of the selected MTDLs on CA IX-positive HeLa cells, using the MTT assay.
HeLa cells were grown in Dulbecco’s Modified Eagle’s Medium supplemented with 10% FBS, 100 U/mL penicillin, and 100 μg/mL streptomycin, at 37 °C, in a 5% CO2/95% air atmosphere. Cells were sub-cultured at 90% confluence, in the split ratio 1:8, every 3–5 days. The MTDLs used in this study, as well as the CAIs S and C, were dissolved in DMSO at 40 mM (for the sulphonamides) or 10 mM (for the coumarins) concentration. As for berberine, a 50 mM stock solution in DMSO was prepared. Each tested compound was diluted in cell culture medium to the required concentration, immediately prior to use. As regards the experiments under hypoxic conditions, an 80 mM stock solution of CoCl2 was prepared in sterile distilled water and further diluted in medium to obtain the final desired concentrations.
For the MTT experiments in the presence of normal oxygen levels, HeLa cells were seeded in 96-well plates at a density of 15,000 cells per well (culture medium volume – 100 μL/well) and incubated at 37 °C, for 24 h. The medium was then removed, and HeLa were incubated, for 48 h, with fresh medium containing increasing concentrations of MTDLs, single-target-directed agents (berberine, S, and C) or vehicle (0.5% DMSO). The MTDL C-4,2 was also tested for 12 h. As for the co-treatments, cells were co-treated for 12 h with equimolar concentrations of berberine and C. As regards the MTT experiments under hypoxic conditions, HeLa cells were seeded in 96-well plates (8,000 cells per well) and incubated overnight, pre-treated with 50 μM cobalt (II) chloride hexahydrate (CoCl2) and then, for the following 12 h, either exposed to increasing concentrations of C-4,2 or vehicle (0.5% DMSO), or co-treated with equimolar concentrations of berberine and C. Each condition was assayed in triplicate. At the end of the treatments, 10 µL of MTT reagent were added to each well, at a final concentration of 0.5 mg/mL, and the plates were incubated at 37 °C for 4 h. To dissolve the resulting purple formazan crystals, 100 μL of the solubilisation solution were added into each well and the plates were allowed to stand overnight in the incubator (37 °C, 5% CO2/95% air). Finally, the optical density of the samples (at 570 nm) was measured on an ELx800 Absorbance Microplate Reader (BioTek Instruments, Inc., Winooski, VT, USA). The percentage (%) of cell survival for each condition was calculated by using the following equation: % cell survival=OD− OD0/ODCONTROL− OD0×100 where OD is the optical density of the sample, OD0 is the optical density of the background signal, and ODCONTROL is the optical density of the control sample (cells treated with vehicle, 0.5% DMSO). The concentration able to reduce by 50% the cellular viability (IC50) was calculated, for each investigated compound, using Prism 8.0.2 (GraphPad, San Diego, CA, USA) and plotting the percentage of cell survival versus the compound concentration (µM).

[2] = target: T1, hCA IX (Homo sapiens, UniProt Q16790); test: stopped-flow CO2 hydrase assay, hCA IX; type: biochemical; settings: for Selectivity index (SI) I/IX: hCA IX over hCA I; for Selectivity index (SI) II/IX: hCA IX over hCA II; for Ki: mean ± SEM of three assays
T1 construct: made in house
From the text: An Applied Photophysics stopped-flow instrument has been used for assaying the CA-catalysed CO2 hydration activity, as reported earlier. […] All hCA isoforms were recombinant proteins, being obtained in-house as reported earlier.

[3] = system: c-Kit1; test: CD melting experiments, c-Kit1 GQ; type: binding; settings: for ΔT1/2 c-Kit1: 2 molar equiv compound, T1/2 of DNA alone 55.0 °C; for ΔΔT1/2 c-Kit1: ΔT1/2 of compound minus ΔT1/2 of berberine, 2 molar equiv
[4] = target: T2, hCA II (Homo sapiens, UniProt P00918); test: stopped-flow CO2 hydrase assay, hCA II; type: biochemical
T2 construct: made in house
From the text: . The structure-activity relationship is discussed separately for the two compound subsets. Another code pattern is included for the MTDLs in Table 1, which indicates the derivative CAI type (sulphonamide, S or coumarin, C) and the number of atoms in the spacers connecting either berberine and the triazole (carbon atoms) or the triazole and the benzenesulfonamide/coumarin scaffolds (carbon or oxygen atoms).
An Applied Photophysics stopped-flow instrument has been used for assaying the CA-catalysed CO2 hydration activity, as reported earlier. The enzyme concentrations were in the range 5–12 nM. All hCA isoforms were recombinant proteins, being obtained in-house as reported earlier.

[5] = system: c-Myc; test: CD melting experiments, c-Myc GQ; type: binding; settings: for ΔΔT1/2 c-Myc: ΔT1/2 of compound minus ΔT1/2 of berberine, 1 molar equiv; for ΔT1/2 c-Myc: 1 molar equiv compound, T1/2 of DNA alone 70.0 °C
[6] = system: Hairpin; test: CD melting experiments, hairpin DNA duplex; settings: 2 molar equiv compound, T1/2 of DNA alone 66.0 °C
[7] = 48 h, normoxia, read-out: IC50 (50% of cell viability reduction), MTT assay
[8] = sulphonamides, inhibitor-enzyme incubation 15 min
[9] = sulphonamides, inhibitor-enzyme incubation 15 min, mean ± SEM of three assays
[10] = coumarins, inhibitor-enzyme incubation 6 h

IC50 [1, 7]	Selectivity index (SI) I/IX [2]	Selectivity index (SI) II/IX [2]	Ki [2, 8]	Ki [4, 9]	Structure (SMILES)	IC50 (50% of cell viability reduction), MTT assay ([1]; 48 h, normoxia)	ΔT1/2 c-Kit1 [3]	ΔΔT1/2 c-Kit1 [3]	ΔΔT1/2 c-Myc [5]	ΔT1/2 Hairpin [6]	ΔT1/2 c-Myc [5]	Ki [2, 10]	Ki [4, 10]	also measured
> 200000 nM	1437	111.3	0.56 ± 0.03 nM	62.3 ± 4.7 nM	COc1ccc2cc3[n+](cc2c1OCCCn1cc(COc2ccc(S(N)(=O)=O)cc2)nn1)CCc1cc2c(cc1-3)OCO2 [Compound 29, 10-Methoxy-9–(3-(4-((4-sulfamoylphenoxy)methyl)-1H-1,2,3-triazol-1-yl)propoxy)-5,6-dihydro-[1,3]dioxolo[4,5-g]isoquinolino[3,2-a]isoquinolin-7-ium hexafluorophosphate]	fell outside the explored range of concentrations	16.0 °C	3.0 °C	4.5 °C	-0.5 °C	16.5 °C			
> 200000 nM	2390	65.8	0.24 ± 0.02 nM	15.8 ± 1.2 nM	COc1ccc2cc3[n+](cc2c1OCCCCCn1cc(-c2ccc(S(N)(=O)=O)cc2)nn1)CCc1cc2c(cc1-3)OCO2 [Compound 32, 10-Methoxy-9-((5–(4-(4-sulfamoylphenyl)-1H-1,2,3-triazol-1-yl)pentyl)oxy)-5,6-dihydro-[1,3]dioxolo[4,5-g]isoquinolino[3,2-a]isoquinolin-7-ium hexafluorophosphate]	fell outside the explored range of concentrations	19.0 °C	6.0 °C	1.0 °C	-1.0 °C	13.0 °C			reduction in the percentage of cell survival ([1]; 48 h, concentration up to 200 µM): around 40%; ΔΔT1/2 c-Kit1 ([3]; listed as S-5,0): ≥ 6.0 °C
> 50000 nM					COc1ccc2cc3[n+](cc2c1OCCCn1cc(COc2ccc4ccc(=O)oc4c2)nn1)CCc1cc2c(cc1-3)OCO2 [Compound 34, 10-Methoxy-9–(3-(4-(((2-oxo-2H-chromen-7-yl)oxy)methyl)-1H-1,2,3-triazol-1-yl)propoxy)-5,6-dihydro-[1,3]dioxolo[4,5-g]isoquinolino[3,2-a]isoquinolin-7-ium hexafluorophosphate]	fell outside the explored range of concentrations	20.0 °C	7.0 °C	6.0 °C	+1.0 °C	18.0 °C	66 ± 4.3 nM	> 100000 nM	

Continued, compound first:

Structure (SMILES)	IC50 [1, 7]	Selectivity index (SI) I/IX [2]	Selectivity index (SI) II/IX [2]	Ki [2, 8]	Ki [4, 9]	IC50 (50% of cell viability reduction), MTT assay ([1]; 48 h, normoxia)	ΔT1/2 c-Kit1 [3]	ΔΔT1/2 c-Kit1 [3]	ΔΔT1/2 c-Myc [5]	ΔT1/2 Hairpin [6]	ΔT1/2 c-Myc [5]	Ki [2, 10]	Ki [4, 10]	also measured
COc1ccc2cc3[n+](cc2c1OCCn1cc(-c2ccc(S(N)(=O)=O)cc2)nn1)CCc1cc2c(cc1-3)OCO2 [Compound 26, 10-Methoxy-9–(2-(4–(4-sulfamoylphenyl)-1H-1,2,3-triazol-1-yl)ethoxy)-5,6-dihydro-[1,3]dioxolo[4,5-g]isoquinolino[3,2-a]isoquinolin-7-ium hexafluorophosphate]	> 200000 nM	414.6	42.4	1.1 nM and 1.4 nM	59.4 ± 3.8 nM	fell outside the explored range of concentrations	22.0 °C	9.0 °C	>13.0 °C	-0.5 °C				ΔΔT1/2 c-Kit1 ([3]; listed as S-2,0): ≥ 6.0 °C; ΔΔT1/2 c-Myc ([5]; listed as S-2,0): > 13.0 °C
COc1ccc2cc3[n+](cc2c1OCCCCn1cc(-c2ccc(S(N)(=O)=O)cc2)nn1)CCc1cc2c(cc1-3)OCO2 [Compound 30, 10-Methoxy-9–(4–(4-(4-sulfamoylphenyl)-1H-1,2,3-triazol-1-yl)butoxy)-5,6-dihydro-[1,3]dioxolo[4,5-g]isoquinolino[3,2-a]isoquinolin-7-ium hexafluorophosphate]	35000 nM	1209	112.4	0.49 ± 0.03 nM	55.1 ± 3.8 nM		20.5 °C	7.5 °C	>13.0 °C	-1.0 °C				ΔΔT1/2 c-Kit1 ([3]; listed as S-4,0): ≥ 6.0 °C; ΔΔT1/2 c-Myc ([5]; listed as S-4,0): > 13.0 °C
COc1ccc2cc3[n+](cc2c1OCCCCn1cc(COc2ccc4ccc(=O)oc4c2)nn1)CCc1cc2c(cc1-3)OCO2 [Compound 37, 10-Methoxy-9–(4-(4-(((2-oxo-2H-chromen-7-yl)oxy)methyl)-1H-1,2,3-triazol-1-yl)butoxy)-5,6-dihydro-[1,3]dioxolo[4,5-g]isoquinolino[3,2-a]isoquinolin-7-ium hexafluorophosphate]	40000 nM	> 578.0	> 578.0				17.5 °C	4.5 °C	1.0 °C	+0.5 °C	13.0 °C	17.3 ± 1.2 nM	> 100000 nM	cytotoxicity compared with co-exposure to equimolar berberine and C ([1]; 12 h, normoxia): greater; IC50 ([1]; 12 h treatment, normoxia, read-out: IC50, MTT assay): 46000 nM
